Assay results published in EP0528486A2, “Non-substrate inhibitors of farnesyl protein transferase” (MERCK & CO. INC., priority 1991, dated 1993).
Where a SMILES comes first, the peptide text is derived from it.

Columns and labels:
Format in all cases: biochemical, bovine
[1] = molecular target: T1, farnesyl-protein transferase (Bos taurus, UniProt P29702+P49355); assay: Tetrapeptides tested as farnesylation substrates (TLC / autoradiography); details: for Farnesylation Substrate: peptide 200 µM, partially pure bovine farnesyl-protein transferase, 0.5 µM [3H] FPP, 30 min. at 30°C
T1 construct: partially pure bovine brain farnesyl-protein transferase; from tissue; host or cells: bovine brain (cerebral lobes)
Description: When a peptide was used as the acceptor substrate, there were two changes to the assay: (1) Ras protein was excluded and, (2) the reactions were stopped by the additon of one tenth volume of 0.5 M EDTA. A portion of the reaction mixture was spotted onto a TLC plate (silica gel 60 thin layer chromatography plates (20 cm x 20 cm, 0.25 mm layer thickness) were from E. Merck (Darrnstadt) and eluted with either ethyl acetate:pyridine: acetic acid:water (10:5:1:3) or n-propanol:water (7:3) elution systems. After drying under vacuum, the plates were sprayed with En³Hance and exposed to X-ray film at -70°C.
CAAX tetrapeptides and other tetrapeptides including Cys-Xaa¹-Xaa²-Xaa³-NRR¹ were tested as farnesylation substrates using [³H]FPP and partially pure bovine brain farnesyl-protein transferase. […] Thin layer chromatography (TLC) conditions were developed which resolved the substrates farnesyl diphosphate (Rf = 0.06) and CVLS (Rf = 0.28) and product S-farnesyl-CVLS (Rf = 0.58). These Rf values reflect TLC conditions using ethylacetate:pyridine: acetic acid:water (10:5:1:3) as the eluent. In another elution system, n-propanol:water (7:3), farnesyl-diphosphate (Rf= 0.18) was readily seperated from farnesylated tetrapeptides (examples: CAIS (Rf=0.84) and CAIM (Rf=0.83)). Quenched reaction mixtures containing peptide, farnesyl-diphosphate and farnesyl-protein transferase were separated by TLC followed by visualization of the radioactive species by autoradiography. […] Control peptides having a Cys to Ser substitution were not substrates.
The indicated peptides at 200 µM were incubated with partially pure bovine farnesyl-protein transferase and 0.5 µM [3H] FPP for 30 min. at 30°C. Autoradiographic exposure time was overnight (15-20 hr).

[2] = molecular target: T1, farnesyl-protein transferase; assay: Inhibition of Ras farnesylation in vitro; details: Ras-CVLS at 3.5 µM, 0.25 µM [³H]FPP, partially purified enzyme; average of 2-5 determinations; read-out: IC₅₀
Method: Polyisoprenylation of Ras- [³H]Farnesyl diphosphate (FPP) (20 Ci/mmol) was purchased from New England Nuclear. Farnesyl-protein transferase activity assays were carried out at 30°C unless noted otherwise. A typical reaction contained (in a final volume of 50 µl):[³H]farnesyl diphosphate, Ras protein (3.5µM), 50 mM HEPES, pH 7.5, 5 mM MgCl₂ 5 mM dithiothreitol and farnesyl-protein transferase. After thermally pre-equilibrating the assay mixture in the absence of enzyme, reactions were initiated by the addition of farnesyl-protein transferase and stopped at timed intervals by the addition of 1M HCl in ethanol (1 mL). The quenched reactions were allowed to stand for 15 minutes (to complete the precipitation process). After adding 2 mL of 100% ethanol, the reactions were vacuum-filtered through Whatmann GF/C filters. Filters were washed four time with 2 mL aliquots of 100% ethanol, mixed with scintillation fluid (10 mL) and then counted in a Beckmann LS3801 scintillation couter.
For inhibition studies, assays were run as described above, except putative inhibitors were added at the concentration indicated, IC₅₀ values were determined with both farnesyl-protein transferase substrates at their KM concentrations. The KM for Ras protein substrate having the CAAX sequence, CVLS, is 3.5 µM and the KM for FPP is 0.25µM.
Ras proteins used as substrates were expressed in E. coli and purified. […]

[3] = molecular target: T1, farnesyl-protein transferase; assay: Mechanism of inhibition using homogenous, pure farnesyl-protein transferase
Method: To prepare pure enzyme, the nonapeptide, […], was covalently bound to Affigel-10 under anhydrous conditions as described by the manufacturer (15 µmol peptide per 1 mL of Affigel-10). Unreacted resin was treated with ethanolamine. After multiple passes of ω-aminooctyl-agarose-column-purified protein over the peptide column, the column was washed and eluted as described by Reiss, et al., (1990) ibid, to recover farnesyl-protein transferase activity.

| SMILES | Farnesylation Substrate [1] | IC50 [2] [µM] | farnesylation substrate (result in words, TLC autoradiography) ([1]; [³H]FPP, partially pure bovine brain farnesyl-protein transferase) | mechanism of inhibition with respect to Ras-CVLS protein substrate [3] | mechanism of inhibition with respect to farnesyl diphosphate [3] |
| --- | --- | --- | --- | --- | --- |
| CSCC[C@H](NC(=O)[C@H](Cc1ccccc1)NC(=O)[C@@H](NC(=O)[C@@H](N)CS)C(C)C)C(N)=O [CVFM-NH₂, Cys-Val-Phe-Met-NH₂] (H-CVFM-NH2) | - (< 1% conversion) | 2.3 | – | – | – |
| CC(C)C[C@H](NC(=O)[C@@H](NC(=O)[C@@H](N)CS)C(C)C)C(=O)N[C@@H](CO)C(N)=O [CVLS-NH₂, Cys-Val-Leu-Ser-NH₂] (H-CVLS-NH2) | - (< 1% conversion) | 16 | do not serve as effective substrates | competitive inhibitor | not a competitive inhibitor |
